Assay results from patent US6790971B1, “19-Nor-steroids” (Aventis Pharma S.A., priority 1989, dated 2004).

Tests used:
[1] = target: T1, Glucocorticoid Receptor of Rat Thymus (Rattus norvegicus, UniProt P06536); assay: Relative affinity of the bond, glucocorticoid receptor (tritiated dexamethasone displacement); assay type: binding; settings: RAB=100(CH)/(CX); for Relative affinity of the bond (RAB), Glucocoticoid, 4 H: incubation 4 H at 0° C.; for Relative affinity of the bond (RAB), Glucocoticoid, 24 H: incubation 24 H at 0° C.
T1 construct: The thymuses were removed and homogenized at 0° C; from tissue; host or cells: thymus cytosol (105,000 g supernatant) of adrenalectomised male Sprague-Dawley rats
T1 sequence (P06536 1-795): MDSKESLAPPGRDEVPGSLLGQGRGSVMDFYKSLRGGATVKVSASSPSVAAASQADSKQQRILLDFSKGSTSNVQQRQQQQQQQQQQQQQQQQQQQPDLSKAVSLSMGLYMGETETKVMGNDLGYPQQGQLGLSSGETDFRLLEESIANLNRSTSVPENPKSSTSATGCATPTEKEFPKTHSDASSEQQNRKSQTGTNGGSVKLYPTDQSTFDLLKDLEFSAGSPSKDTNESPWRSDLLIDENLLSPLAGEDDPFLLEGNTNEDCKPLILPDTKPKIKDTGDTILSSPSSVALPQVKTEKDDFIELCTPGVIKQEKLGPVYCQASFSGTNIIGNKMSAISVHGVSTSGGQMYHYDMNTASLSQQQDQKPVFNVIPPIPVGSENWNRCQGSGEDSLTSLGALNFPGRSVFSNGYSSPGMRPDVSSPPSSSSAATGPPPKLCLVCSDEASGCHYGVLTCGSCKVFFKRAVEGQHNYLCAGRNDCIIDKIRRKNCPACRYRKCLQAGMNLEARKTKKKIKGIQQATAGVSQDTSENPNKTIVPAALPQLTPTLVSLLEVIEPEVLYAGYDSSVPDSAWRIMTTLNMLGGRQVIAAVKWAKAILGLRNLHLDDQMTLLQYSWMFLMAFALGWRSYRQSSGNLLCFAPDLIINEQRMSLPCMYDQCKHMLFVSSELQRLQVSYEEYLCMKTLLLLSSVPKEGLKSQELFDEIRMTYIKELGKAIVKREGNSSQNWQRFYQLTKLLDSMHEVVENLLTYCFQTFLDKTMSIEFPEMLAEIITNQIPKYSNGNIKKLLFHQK
Experimental: Glucocorticoid Receptor of Rat Thymus:
Male Sprague Dawley EOPS rats weighing 160 to 200 g were subjected to suprarenalectomy and 4 to 8 days after this intervention, the animals were killed. The thymuses were removed and homogenized at 0° C. in a 10 mM Tris, 0.25 M saccharose, 2 mM dithiothreitol, HCL pH 7.4 buffer, with the aid of a Potter polytetrafluoroethylene-glass (1 g of tissue for 10 ml of TS). The homogenate was subsequently ultracentrifuged (105,000 g×90 min) at 0° C. and aliquots of the supernatant were incubated at 0° C. for a time (t) with a constant concentration (T) of tritiated dexamethasone in the presence of increasing concentrations (0-2,500.10^−9 M) either of cold dexamethasone, or of cold product to be tested. The concentration (B) of the bound tritiated dexamethasone was measured in each incubate by the adsorption technique on dextran carbon.
(§1) Calculation of the Relative Affinty of the Bond
(§2) The calculation of the Relative Affinity of the Bond (RAB) was identical for all the receptors. The following 2 curves were traced; the percentage of the bound tritiated hormone [formula]
(§3) was a function of the logarithm of the concentration of the cold reference hormone and [formula]
(§4) as a function of the logarithm of the concentration of the cold product tested.
(§5) One determined the straight line of the equation [formula]
(§6) The intersections of the straight line I50 and of the curves make it possible to evaluate the concentrations of the cold reference hormone (CH) and of the tested cold product (CX) which inhibit to an extend of 50% the binding of the tritiated hormone upon the receptor. The relative affinity of the bond (RAB) of the tested product is determined by the equation

[2] = target: T2, Progestogen Receptor of Rabbit's Uterus (Oryctolagus cuniculus, UniProt P06186); assay: Relative affinity of the bond, progestogen receptor (tritiated product R displacement); assay type: binding; settings: for Relative affinity of the bond (RAB), Progestogen, 2 H: incubation 2 H at 0° C.; for Relative affinity of the bond (RAB), Progestogen, 2 H / Relative affinity of the bond (RAB), Progestogen, 24 H: RAB=100(CH)/(CX); for Relative affinity of the bond (RAB), Progestogen, 24 H: incubation 24 H at 0° C.
T2 construct: The uteri were removed, weighed and homogenized at 0° C; from tissue; host or cells: uterine cytosol (150,000 g supernatant) of estradiol-primed immature rabbits
T2 sequence (P06186 1-930): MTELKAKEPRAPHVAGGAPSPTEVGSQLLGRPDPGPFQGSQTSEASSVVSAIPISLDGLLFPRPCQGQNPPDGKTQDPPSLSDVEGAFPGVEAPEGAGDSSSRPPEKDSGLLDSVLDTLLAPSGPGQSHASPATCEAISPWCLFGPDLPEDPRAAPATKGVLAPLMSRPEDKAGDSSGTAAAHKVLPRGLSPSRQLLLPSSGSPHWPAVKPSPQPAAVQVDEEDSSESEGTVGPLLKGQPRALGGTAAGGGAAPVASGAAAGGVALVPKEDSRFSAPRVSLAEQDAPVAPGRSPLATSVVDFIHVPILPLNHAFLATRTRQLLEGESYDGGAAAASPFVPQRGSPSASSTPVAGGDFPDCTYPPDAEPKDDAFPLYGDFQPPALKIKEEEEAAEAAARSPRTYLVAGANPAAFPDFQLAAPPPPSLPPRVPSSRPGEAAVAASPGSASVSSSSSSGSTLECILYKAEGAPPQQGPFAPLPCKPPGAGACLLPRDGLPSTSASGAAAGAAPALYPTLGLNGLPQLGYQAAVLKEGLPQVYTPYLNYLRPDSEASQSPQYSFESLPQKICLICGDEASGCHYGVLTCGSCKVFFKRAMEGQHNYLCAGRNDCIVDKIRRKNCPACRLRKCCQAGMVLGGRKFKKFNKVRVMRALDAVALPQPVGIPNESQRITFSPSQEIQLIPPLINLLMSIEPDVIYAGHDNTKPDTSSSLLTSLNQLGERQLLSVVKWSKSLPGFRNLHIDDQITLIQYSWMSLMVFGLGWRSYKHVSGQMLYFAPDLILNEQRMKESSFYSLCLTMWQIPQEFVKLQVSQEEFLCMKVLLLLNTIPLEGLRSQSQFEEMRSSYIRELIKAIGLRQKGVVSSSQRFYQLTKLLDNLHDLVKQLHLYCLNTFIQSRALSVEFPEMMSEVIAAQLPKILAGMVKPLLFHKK
Experimental: Progestogen Receptor of Rabbit's Uterus:
Impuberal rabbits weighing about 1 kg received a cutaneous application of 25 μg of estradiol and 5 days after this treatment, the animals were killed. The uteri were removed, weighed and homogenized at 0° C. using a Potter teflon-glass in a TS buffered solution (Tris 10 mM, Saccharose 0.25 M, HCl pH 7.4) (1 g of tissue for 50 ml of TS). The homogenate was then ultracentrifuged (150,000 g×90 minutes) at 0° C. and aliquots of the supernatant were incubated at 0° C. for a time t, with a constant concentration (T) of the tritiated product R (17,21-dimethyl-19-nor-Δ^4,9-pregnadiene-3,20-dione in the presence of increasing concentrations (0-2500.10^−9 M) either of cold R or of cold progesterone, or of the cold product to be tested. The concentration (B) of bound tritiated R was subsequently measured in each incubate by the technique of adsorption on dextran charcoal.
as §1, §2, §3, §4, §5, §6

| Compound | Relative affinity of the bond (RAB), Glucocoticoid, 4 H [1] | Relative affinity of the bond (RAB), Glucocoticoid, 24 H [1] | Relative affinity of the bond (RAB), Progestogen, 2 H [2] | Relative affinity of the bond (RAB), Progestogen, 24 H [2] | affinity for the pregesterone receptor [2] |
| --- | --- | --- | --- | --- | --- |
| CCCCN(C)C(=O)CCCCCCCCCCC[C@H]1C[C@]2(C)[C@@H](O)CC[C@H]2[C@@H]2CCc3cc(O)ccc3[C@@H]12 [Example 24, N-butyl-3,17β-dihydroxy-N-methyl-11β-Δ^1,3,5(10)-estratriene dodecanamide] | 2 | 3 | 0 | 0 |  |
| N-butyl-3,17β-dihydroxy-N-methyl-19-nor-11β-Δ^1,3,5(10)-pregnatrien-20-yn undecanamide [Example 21] | 2 | 2.6 | 0.3 | 1 |  |
| CN(C)CCN(C)C(=O)CCCCCCCCCC[C@H]1C[C@]2(C)[C@@H](O)CC[C@H]2[C@@H]2CCC3=CC(=O)CCC3=C12 [Example 19, N-[2-(dimethylamino)-ethyl]-17β-hydroxy-N-methyl-3-oxo-11β-Δ^4,9-estradiene undecanamide] | 6 | 4.6 | 6 | 7 |  |
| CC#C[C@]1(O)CC[C@H]2[C@@H]3CCC4=CC(=O)CCC4=C3[C@@H](CCCCCCCCCCC(=O)NCCCC)C[C@@]21C [Example 22, N-butyl-17β-hydroxy-3-oxo-17α-(1-propynyl)-11β-Δ^4,9-estradiene undecanamide] | 7 | 14 | 12 | 21 | moderate affinity |
| CC(C)N(C)C(=O)CCCCCCCCCC[C@H]1C[C@]2(C)[C@@H](O)CC[C@H]2[C@@H]2CCc3cc(O)ccc3[C@@H]12 [Example 16, 3,17β-dihydroxy-N-methyl-N-isopropyl-11β-Δ^1,3,5(10)-estratriene undecanamide] | 12 | 11 | 0.5 | 2 |  |
| CCCCN(C)C(=O)CCCCCCCCCC[C@H]1C[C@]2(C)[C@@H](O)CC[C@H]2[C@@H]2CCc3cc(O)ccc3[C@@H]12 [Example 13, N-Butyl-3,17β-Dihydroxy-N-Methyl-11β-Δ^1,3,5(10)-Estratriene-Undecanamide] | 7 | 7 | 0.0 | 1.8 |  |
| CN(Cc1ccccc1)C(=O)CCCCCCCCCC[C@H]1C[C@]2(C)[C@@H](O)CC[C@H]2[C@@H]2CCC3=CC(=O)CCC3=C12 [Example 17, N-benzyl-17β-hydroxy-N-methyl-3-oxo-11β-Δ^4,9-estradiene undecanamide] | 3 | 6 | 0 | 16 | moderate affinity |
